Assay: particle size by Coulter counter (100 μm tube)
Format: physicochemical
Conditions: without the use of a viscosity-enhancing agent
Description: (iii) bringing the salt solution, the aqueous suspension or dispersion and the acid into admixture whereby there is formed a precipitate of microparticles of the active ingredient wherein 90% of the microparticles are of a diameter less than about 10 μm (number) when measured by a Coulter counter (100 μm tube).
Step (iii) may be undertaken by first bringing the salt solution into admixture with the aqueous suspension or dispersion followed by addition of the acid. However, preferably, the acid is added to the aqueous suspension/dispersion prior to addition thereto of the salt solution. Preferably, more base is then added to the suspension to neutralize the hydrophilic polymer(s). […]
However, in contrast to when pre-micronized active ingredient is used, the process of the present invention whereby such fine particles are produced in situ by precipitation results in a better distribution of particle size, with the D90 at room temperature being of the order of 5-10 μm (number), preferably 7-9 μm (number) or 10-16 μm (volume), whereas for pre-micronized drug the D90 is of the order of 5-10 μm (number) or 21-24 μm (volume). […] The term “D90” as used herein with respect to particle size distribution means that 90% of the particles have a diameter, when measured by a Coulter counter (100 μm tube), of less than the quoted figure. […]

- length of needle-shaped crystals precipitated: greater than 30 μm
SMILES: Nc1nc2c(ncn2COCCO)c(=O)[nH]1 [aciclovir, 2-amino-1,9-dihydro-9-[(2-hydroxyethoxy)methyl]6H-purin-6-one]

— patent US6379692B1, “Pharmaceutical composition comprising a suspension for the active ingredient” (Chauvin Pharmaceuticals Limited, priority 1997, dated 2002)
